Laboratory results taken from ChEMBL document CHEMBL5442175, “EUbOPEN Chemogenomics Library - PDSP Secondary Binding” (2024).

Tests used:
[1] = molecular target: Beta-3 adrenergic receptor (Homo sapiens, UniProt P13945); assay: (§1) PDSP Secondary Binding target: ADRB3 - Compounds are tested at 10 uM concentration, plate are incubated at room temperature in the dark for 90 minutes. Reaction are stopped by vacuum filtration onto 0.3% polyethyleneimine soaked filter mats using Filtermate harvester. Scintillation cocktail is then melted onto microwave-dried filters on a hot plate and the radio activity is counted in Microbia counter.
Translocator protein = Translocator protein (Homo sapiens, UniProt P30536); assay: as §1, with “TSPO” for “ADRB3”
[2] = molecular target: Sodium-dependent dopamine transporter (Homo sapiens, UniProt Q01959); assay: as §1, with “SLC6A3” for “ADRB3”
[3] = molecular target: Kappa-type opioid receptor (Homo sapiens, UniProt P41145); assay: as §1, with “OPRK1” for “ADRB3”
[4] = molecular target: Sodium-dependent serotonin transporter (Homo sapiens, UniProt P31645); assay: as §1, with “SLC6A4” for “ADRB3”
[5] = molecular target: T1, Alpha-2B adrenergic receptor (Homo sapiens, UniProt P18089); assay: as §1, with “ADRA2B” for “ADRB3”
T1 sequence (P18089 whole entry): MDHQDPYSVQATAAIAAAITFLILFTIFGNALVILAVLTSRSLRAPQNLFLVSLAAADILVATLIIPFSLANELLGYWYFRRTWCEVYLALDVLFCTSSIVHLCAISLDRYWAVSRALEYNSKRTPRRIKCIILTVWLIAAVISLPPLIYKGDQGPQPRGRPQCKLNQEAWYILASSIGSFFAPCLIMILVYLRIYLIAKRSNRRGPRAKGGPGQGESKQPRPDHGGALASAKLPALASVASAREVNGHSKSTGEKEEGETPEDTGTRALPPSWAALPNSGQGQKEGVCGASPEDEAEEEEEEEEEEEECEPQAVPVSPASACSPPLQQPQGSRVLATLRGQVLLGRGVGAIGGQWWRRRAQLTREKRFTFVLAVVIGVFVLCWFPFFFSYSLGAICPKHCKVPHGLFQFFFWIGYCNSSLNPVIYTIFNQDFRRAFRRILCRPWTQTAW

D(3) dopamine receptor = D(3) dopamine receptor (Homo sapiens, UniProt P35462); assay: as §1, with “DRD3” for “ADRB3”
[6] = molecular target: Sigma intracellular receptor 2 (Homo sapiens, UniProt Q5BJF2); assay: as §1, with “TMEM97” for “ADRB3”
[7] = molecular target: T2, Alpha-2A adrenergic receptor (Homo sapiens, UniProt P08913); assay: as §1, with “ADRA2A” for “ADRB3”
T2 sequence (P08913 whole entry): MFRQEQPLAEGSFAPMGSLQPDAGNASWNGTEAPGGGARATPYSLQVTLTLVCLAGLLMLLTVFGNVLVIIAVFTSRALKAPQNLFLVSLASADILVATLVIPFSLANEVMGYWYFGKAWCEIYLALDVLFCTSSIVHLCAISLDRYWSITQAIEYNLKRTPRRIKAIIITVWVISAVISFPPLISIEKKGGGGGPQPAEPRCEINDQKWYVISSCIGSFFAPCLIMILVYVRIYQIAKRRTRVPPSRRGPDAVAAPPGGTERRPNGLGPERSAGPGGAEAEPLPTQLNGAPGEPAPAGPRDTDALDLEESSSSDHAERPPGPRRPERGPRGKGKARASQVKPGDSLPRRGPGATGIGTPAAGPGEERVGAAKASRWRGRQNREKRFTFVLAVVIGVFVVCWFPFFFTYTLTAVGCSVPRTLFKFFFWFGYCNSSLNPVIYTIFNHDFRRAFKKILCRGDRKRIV

D(1B) dopamine receptor = D(1B) dopamine receptor (Homo sapiens, UniProt P21918); assay: as §1, with “DRD5” for “ADRB3”
[8] = molecular target: T3, Alpha-2C adrenergic receptor (Homo sapiens, UniProt P18825); assay: as §1, with “ADRA2C” for “ADRB3”
T3 sequence (P18825 whole entry): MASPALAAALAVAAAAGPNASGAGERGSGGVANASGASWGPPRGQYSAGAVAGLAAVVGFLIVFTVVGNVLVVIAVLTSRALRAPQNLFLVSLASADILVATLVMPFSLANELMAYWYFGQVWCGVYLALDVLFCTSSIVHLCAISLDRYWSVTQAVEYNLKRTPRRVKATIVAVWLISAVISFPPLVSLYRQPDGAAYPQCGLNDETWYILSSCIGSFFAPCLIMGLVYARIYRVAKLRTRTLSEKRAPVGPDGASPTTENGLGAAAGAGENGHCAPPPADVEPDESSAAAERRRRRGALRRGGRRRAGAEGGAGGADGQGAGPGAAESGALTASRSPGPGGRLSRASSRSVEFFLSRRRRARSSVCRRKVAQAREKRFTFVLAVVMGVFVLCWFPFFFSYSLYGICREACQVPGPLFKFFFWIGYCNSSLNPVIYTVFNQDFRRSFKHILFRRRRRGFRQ

Mu-type opioid receptor = Mu-type opioid receptor (Homo sapiens, UniProt P35372); assay: as §1, with “OPRM1” for “ADRB3”
[9] = molecular target: Sigma non-opioid intracellular receptor 1 (Homo sapiens, UniProt Q99720); assay: as §1, with “SIGMAR1” for “ADRB3”
[10] = molecular target: Sodium-dependent noradrenaline transporter (Homo sapiens, UniProt P23975); assay: as §1, with “SLC6A2” for “ADRB3”
D(4) dopamine receptor = molecular target: T4, D(4) dopamine receptor (Homo sapiens, UniProt P21917); assay: as §1, with “DRD4” for “ADRB3”
T4 sequence (P21917 whole entry): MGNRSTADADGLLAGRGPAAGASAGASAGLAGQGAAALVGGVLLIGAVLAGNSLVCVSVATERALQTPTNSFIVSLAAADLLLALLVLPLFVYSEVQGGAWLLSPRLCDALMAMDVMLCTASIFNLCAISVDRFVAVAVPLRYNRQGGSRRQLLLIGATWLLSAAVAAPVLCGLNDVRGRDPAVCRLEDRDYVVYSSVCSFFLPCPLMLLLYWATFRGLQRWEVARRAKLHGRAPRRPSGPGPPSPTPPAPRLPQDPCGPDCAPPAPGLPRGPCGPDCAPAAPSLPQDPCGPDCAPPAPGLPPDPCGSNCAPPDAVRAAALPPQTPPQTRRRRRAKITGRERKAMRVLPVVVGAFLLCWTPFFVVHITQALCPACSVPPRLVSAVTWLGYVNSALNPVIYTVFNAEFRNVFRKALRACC

[11] = molecular target: T5, Alpha-1B adrenergic receptor (Homo sapiens, UniProt P35368); assay: as §1, with “ADRA1B” for “ADRB3”
T5 sequence (P35368 whole entry): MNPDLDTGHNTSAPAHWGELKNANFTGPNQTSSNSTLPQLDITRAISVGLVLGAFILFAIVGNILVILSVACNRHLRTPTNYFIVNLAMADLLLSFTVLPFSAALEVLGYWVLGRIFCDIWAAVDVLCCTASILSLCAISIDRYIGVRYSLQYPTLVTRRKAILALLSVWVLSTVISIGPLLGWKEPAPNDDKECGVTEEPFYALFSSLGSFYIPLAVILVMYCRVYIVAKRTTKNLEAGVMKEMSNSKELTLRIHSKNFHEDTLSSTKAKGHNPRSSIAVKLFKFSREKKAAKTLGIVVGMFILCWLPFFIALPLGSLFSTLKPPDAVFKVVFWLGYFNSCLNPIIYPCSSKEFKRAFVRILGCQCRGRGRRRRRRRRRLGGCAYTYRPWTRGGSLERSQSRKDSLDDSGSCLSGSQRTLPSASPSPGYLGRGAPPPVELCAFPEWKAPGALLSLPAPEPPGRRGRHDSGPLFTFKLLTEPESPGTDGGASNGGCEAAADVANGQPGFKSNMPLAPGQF

[12] = molecular target: T6, Muscarinic acetylcholine receptor M5 (Homo sapiens, UniProt P08912); assay: as §1, with “CHRM5” for “ADRB3”
T6 sequence (P08912 whole entry): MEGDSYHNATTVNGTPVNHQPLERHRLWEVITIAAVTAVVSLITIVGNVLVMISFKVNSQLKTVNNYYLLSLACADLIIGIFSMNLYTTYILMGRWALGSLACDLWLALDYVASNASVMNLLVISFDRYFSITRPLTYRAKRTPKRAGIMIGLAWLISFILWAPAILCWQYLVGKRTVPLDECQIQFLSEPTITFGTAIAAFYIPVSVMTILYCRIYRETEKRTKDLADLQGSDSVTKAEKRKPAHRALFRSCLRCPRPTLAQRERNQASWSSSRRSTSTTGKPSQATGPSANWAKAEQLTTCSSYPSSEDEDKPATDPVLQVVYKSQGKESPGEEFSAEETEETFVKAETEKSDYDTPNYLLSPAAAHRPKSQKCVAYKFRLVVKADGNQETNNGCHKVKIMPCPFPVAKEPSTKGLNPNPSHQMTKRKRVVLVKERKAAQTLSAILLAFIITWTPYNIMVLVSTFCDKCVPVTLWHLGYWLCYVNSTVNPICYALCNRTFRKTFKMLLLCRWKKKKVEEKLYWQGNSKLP

[13] = molecular target: 5-hydroxytryptamine receptor 2B (Homo sapiens, UniProt P41595); assay: as §1, with “HTR2B” for “ADRB3”

Sequence of Sodium-dependent dopamine transporter (Q01959 whole entry): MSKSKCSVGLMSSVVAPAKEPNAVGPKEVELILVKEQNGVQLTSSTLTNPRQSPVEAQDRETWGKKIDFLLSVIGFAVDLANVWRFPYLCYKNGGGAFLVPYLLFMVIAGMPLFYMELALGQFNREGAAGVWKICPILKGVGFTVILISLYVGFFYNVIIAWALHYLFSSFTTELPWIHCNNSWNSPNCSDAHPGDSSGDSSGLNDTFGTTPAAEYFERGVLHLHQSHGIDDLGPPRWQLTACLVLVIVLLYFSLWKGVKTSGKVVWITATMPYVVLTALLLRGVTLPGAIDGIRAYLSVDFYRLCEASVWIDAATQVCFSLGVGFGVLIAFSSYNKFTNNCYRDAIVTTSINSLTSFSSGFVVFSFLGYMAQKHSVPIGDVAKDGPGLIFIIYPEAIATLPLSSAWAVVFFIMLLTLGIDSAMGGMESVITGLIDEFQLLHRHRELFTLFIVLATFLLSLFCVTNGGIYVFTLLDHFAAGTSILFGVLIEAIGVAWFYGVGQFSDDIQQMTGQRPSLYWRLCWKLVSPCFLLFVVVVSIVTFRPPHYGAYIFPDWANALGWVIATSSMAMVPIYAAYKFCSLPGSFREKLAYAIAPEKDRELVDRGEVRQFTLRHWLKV
Sequence of Sigma non-opioid intracellular receptor 1 (Q99720 whole entry): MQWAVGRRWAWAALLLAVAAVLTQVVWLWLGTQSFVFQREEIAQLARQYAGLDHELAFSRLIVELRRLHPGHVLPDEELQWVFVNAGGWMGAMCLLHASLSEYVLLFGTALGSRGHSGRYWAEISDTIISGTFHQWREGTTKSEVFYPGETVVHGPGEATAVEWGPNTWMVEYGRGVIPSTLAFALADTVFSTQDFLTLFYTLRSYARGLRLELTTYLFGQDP
Sequence of Beta-3 adrenergic receptor (P13945 whole entry): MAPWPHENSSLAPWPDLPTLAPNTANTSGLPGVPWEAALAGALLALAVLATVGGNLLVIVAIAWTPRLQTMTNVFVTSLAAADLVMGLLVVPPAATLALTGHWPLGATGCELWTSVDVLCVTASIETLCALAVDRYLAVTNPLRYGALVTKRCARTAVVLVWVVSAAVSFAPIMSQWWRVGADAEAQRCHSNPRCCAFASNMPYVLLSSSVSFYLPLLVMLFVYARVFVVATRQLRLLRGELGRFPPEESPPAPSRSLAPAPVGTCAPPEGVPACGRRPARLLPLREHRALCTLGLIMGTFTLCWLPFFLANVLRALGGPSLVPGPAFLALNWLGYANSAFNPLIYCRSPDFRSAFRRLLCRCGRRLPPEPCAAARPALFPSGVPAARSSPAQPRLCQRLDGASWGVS
Sequence of Sigma intracellular receptor 2 (Q5BJF2 whole entry): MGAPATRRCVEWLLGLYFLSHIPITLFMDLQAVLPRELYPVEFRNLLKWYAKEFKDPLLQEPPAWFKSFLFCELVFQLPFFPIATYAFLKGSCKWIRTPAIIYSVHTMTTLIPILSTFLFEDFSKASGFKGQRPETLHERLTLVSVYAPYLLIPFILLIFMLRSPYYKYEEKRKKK
Sequence of Translocator protein (P30536 whole entry): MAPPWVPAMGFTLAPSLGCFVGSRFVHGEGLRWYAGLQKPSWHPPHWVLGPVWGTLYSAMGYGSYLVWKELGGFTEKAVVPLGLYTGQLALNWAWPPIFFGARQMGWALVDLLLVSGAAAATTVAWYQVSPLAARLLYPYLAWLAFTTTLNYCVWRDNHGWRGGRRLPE
Sequence of D(3) dopamine receptor (P35462 whole entry): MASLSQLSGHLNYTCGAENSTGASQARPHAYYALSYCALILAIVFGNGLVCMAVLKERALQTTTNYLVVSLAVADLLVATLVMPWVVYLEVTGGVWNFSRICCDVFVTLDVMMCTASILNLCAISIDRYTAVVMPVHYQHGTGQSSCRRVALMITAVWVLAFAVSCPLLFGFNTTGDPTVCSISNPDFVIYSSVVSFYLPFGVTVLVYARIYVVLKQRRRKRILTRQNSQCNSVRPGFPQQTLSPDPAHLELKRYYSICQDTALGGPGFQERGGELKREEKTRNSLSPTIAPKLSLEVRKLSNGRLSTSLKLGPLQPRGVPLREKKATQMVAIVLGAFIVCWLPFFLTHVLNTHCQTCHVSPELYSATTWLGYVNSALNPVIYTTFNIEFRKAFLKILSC
Sequence of Mu-type opioid receptor (P35372 whole entry): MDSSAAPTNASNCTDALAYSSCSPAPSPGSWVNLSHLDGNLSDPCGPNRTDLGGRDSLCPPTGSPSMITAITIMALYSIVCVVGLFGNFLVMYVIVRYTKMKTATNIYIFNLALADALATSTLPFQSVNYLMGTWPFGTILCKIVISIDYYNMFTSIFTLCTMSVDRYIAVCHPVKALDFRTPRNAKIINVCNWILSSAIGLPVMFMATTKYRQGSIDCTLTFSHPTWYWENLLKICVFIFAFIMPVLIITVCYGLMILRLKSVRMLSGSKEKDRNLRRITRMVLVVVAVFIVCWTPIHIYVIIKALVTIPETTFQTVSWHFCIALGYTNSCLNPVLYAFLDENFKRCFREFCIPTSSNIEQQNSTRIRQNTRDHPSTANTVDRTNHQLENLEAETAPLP
Sequence of Sodium-dependent noradrenaline transporter (P23975 whole entry): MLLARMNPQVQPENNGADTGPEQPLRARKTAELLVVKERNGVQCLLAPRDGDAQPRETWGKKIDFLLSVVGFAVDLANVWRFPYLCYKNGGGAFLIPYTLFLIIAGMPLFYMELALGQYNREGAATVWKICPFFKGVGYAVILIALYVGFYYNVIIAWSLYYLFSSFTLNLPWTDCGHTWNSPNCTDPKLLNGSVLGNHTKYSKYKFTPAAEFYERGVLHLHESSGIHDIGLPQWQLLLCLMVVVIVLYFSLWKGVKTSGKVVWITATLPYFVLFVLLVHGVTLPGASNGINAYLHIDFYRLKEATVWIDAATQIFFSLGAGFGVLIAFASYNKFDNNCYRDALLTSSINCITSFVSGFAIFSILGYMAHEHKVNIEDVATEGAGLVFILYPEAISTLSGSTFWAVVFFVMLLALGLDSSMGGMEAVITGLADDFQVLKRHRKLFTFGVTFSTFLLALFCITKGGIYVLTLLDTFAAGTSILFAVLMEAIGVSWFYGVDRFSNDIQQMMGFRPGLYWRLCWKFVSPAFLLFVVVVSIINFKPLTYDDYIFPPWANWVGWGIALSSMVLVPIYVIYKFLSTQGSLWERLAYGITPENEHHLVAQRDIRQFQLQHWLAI
Sequence of D(1B) dopamine receptor (P21918 whole entry): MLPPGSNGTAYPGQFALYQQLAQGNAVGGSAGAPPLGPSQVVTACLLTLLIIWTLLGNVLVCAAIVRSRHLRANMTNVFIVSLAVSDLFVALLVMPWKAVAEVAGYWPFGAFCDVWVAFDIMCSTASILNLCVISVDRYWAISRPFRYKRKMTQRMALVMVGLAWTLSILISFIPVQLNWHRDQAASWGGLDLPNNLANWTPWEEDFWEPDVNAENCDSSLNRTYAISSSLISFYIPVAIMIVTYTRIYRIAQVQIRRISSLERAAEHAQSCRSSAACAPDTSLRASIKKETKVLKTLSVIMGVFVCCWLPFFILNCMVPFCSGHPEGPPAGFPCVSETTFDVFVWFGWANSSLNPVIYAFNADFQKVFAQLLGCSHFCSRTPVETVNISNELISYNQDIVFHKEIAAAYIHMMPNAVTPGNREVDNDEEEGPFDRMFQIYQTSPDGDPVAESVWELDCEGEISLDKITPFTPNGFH
Sequence of Sodium-dependent serotonin transporter (P31645 whole entry): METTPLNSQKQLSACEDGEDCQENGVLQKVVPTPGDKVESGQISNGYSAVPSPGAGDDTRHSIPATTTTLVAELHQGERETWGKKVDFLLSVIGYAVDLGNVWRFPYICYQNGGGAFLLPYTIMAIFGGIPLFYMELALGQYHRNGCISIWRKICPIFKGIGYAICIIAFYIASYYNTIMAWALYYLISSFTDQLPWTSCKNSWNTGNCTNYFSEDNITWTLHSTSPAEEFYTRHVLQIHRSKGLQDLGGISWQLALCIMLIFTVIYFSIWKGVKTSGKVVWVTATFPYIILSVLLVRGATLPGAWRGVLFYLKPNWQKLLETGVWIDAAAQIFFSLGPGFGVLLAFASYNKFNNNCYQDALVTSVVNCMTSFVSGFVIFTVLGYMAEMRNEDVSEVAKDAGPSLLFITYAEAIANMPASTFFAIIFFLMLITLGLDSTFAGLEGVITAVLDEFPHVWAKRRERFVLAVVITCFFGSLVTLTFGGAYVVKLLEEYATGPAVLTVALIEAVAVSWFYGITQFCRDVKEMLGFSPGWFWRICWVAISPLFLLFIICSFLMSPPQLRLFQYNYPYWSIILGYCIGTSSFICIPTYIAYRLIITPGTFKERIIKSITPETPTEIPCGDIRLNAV
Sequence of Kappa-type opioid receptor (P41145 whole entry): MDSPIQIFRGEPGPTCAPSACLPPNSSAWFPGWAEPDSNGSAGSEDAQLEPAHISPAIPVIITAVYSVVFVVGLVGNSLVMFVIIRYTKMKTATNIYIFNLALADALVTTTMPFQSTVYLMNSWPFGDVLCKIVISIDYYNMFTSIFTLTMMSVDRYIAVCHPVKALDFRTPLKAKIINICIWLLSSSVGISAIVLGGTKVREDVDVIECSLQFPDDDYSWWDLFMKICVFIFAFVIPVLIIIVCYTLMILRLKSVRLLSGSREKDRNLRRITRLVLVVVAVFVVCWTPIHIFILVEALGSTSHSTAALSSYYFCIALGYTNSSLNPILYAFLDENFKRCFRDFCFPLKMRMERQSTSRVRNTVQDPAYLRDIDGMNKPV

| SMILES | Ki [1] [µM] | Ki (Translocator protein) [µM] | Ki [2] [µM] | Ki [5] [µM] | Ki (D(3) dopamine receptor) [µM] | Ki [6] [µM] | Ki [7] [µM] | Ki [9] [µM] | other results |
| --- | --- | --- | --- | --- | --- | --- | --- | --- | --- |
| N#Cc1ccc(NC(=O)Nc2ccccc2Br)c2nn[nH]c12 | 8.66 | 3.03 | 2.85 | – | – | – | – | – | – |
| C[C@@H](NCCc1ccc(O)cc1)[C@@H](O)c1ccc(O)cc1 (relative stereo) | 3.73 | – | – | – | – | 2.67 | – | 0.587 | Ki [4]: 4.05 µM; Ki (Mu-type opioid receptor): 7.85 µM; Ki [10]: 2.58 µM |
| Cc1csc2c(N[C@@H](C)CN3CCN(S(=O)(=O)c4ccc(Cl)c(Cl)c4)CC3)ncnc12 | 8.88 | 0.799 | – | – | 0.581 | 2 | – | 0.958 | Ki [3]: 0.494 µM |
| CC(C)NCC(O)c1ccc(N)c(C#N)c1 (centres undefined) [CIMATEROL] | 1.87 | – | – | – | – | – | – | – | – |
| Cc1cc([C@@H](C)Nc2cccc(-c3cc(C)c(C(=O)N[C@@H](C)C(=O)O)c(C)c3)c2)ccc1Cl | > 10 | 1.38 | 0.402 | – | 1.11 | – | > 10 | – | Ki [13]: 2.48 µM |

The next lines start with results.

| Ki [1] [µM] | Ki (Translocator protein) [µM] | Ki [2] [µM] | Ki [5] [µM] | Ki (D(3) dopamine receptor) [µM] | Ki [6] [µM] | Ki [7] [µM] | Ki [9] [µM] | SMILES | other results |
| --- | --- | --- | --- | --- | --- | --- | --- | --- | --- |
| – | – | – | 0.311 | 0.568 | 0.0102 | 1.18 | – | CC1CCN(CC[C@H]2CCCN2S(=O)(=O)c2cccc(O)c2)CC1 | Ki [3]: 0.448 µM; Ki [4]: > 10 µM; Ki (D(1B) dopamine receptor): > 10 µM; Ki [8]: 1.74 µM; Ki (Mu-type opioid receptor): 0.185 µM |
| – | – | 0.478 | 0.89 | 0.545 | 0.754 | 0.898 | – | NC[C@@H]1O[C@H](C23CC4CC(CC(C4)C2)C3)Cc2c1ccc(O)c2O | Ki (D(4) dopamine receptor): 0.562 µM; Ki [11]: 4.21 µM; Ki (D(1B) dopamine receptor): 0.00302 µM; Ki [8]: 0.0717 µM; Ki [10]: 0.951 µM |
| > 10 | – | – | – | – | – | > 10 | – | CCC[C@H](Oc1cc(C)c(-n2cc(C(F)(F)F)cn2)c(C)c1)c1ccc(C(=O)NCCC(=O)O)cc1 [PF-06291874] | Ki [12]: 8.58 µM |
| 6.98 | 1.95 | – | > 10 | – | 1.71 | – | 2.69 | Cc1nc(C#Cc2ccnc(Cl)c2)c(C)n1-c1ccc(OC(F)(F)F)cc1 | – |
